Experimental data from patent US11649261B2, “Crystalline forms of a CD73 inhibitor and uses thereof” (ARCUS BIOSCIENCES, INC., priority 2020, dated 2023).
Entries after “also recorded” stand apart in the source; their conditions may differ. Like-named read-outs stand apart in the source and are kept apart here. One block for each compound: values may come before it.

Key:
Assay type in all cases: physicochemical
[1] = Equilibrium solubility of Form I and Form II + V in EtOH/EtOAc, with XRPD of the end solids; settings: for Solubility (wt %) / solubility: overnight; for End Form by XRPD: slurry 20° C. overnight
Protocol: Equilibrium solubilities of Form I and Form V were measured in EtOH/EtOAc at different ratios at 20° C. The Form V starting material contains some Form II as determined by XRPD.
In a 4 mL vial, 50 mg of the appropriate solid was mixed with 1 mL of each solvent. The resulting slurry was shaken at 600 rpm at 20° C. overnight. The supernatant from each vial was sampled for HPLC for equilibrium solubility, and the solids isolated and characterized by XRPD.

[2] = Competitive slurry of crystalline forms in a 1:2 mixture of EtOH(anhydrous):EtOAc; settings: 1:2 EtOH (anhydrous):EtOAc
Protocol: A flask was charged with crystalline Form A (1.5 g) and crystalline Form I (1.5 g) with 30 mL of a 1:2 mixture of ethanol (anhydrous) and ethyl acetate. The resulting mixture was allowed to stir at room temperature for 5 hours resulting in a thick white slurry. An additional 6 mL of the 1:2 EtOH (anhydrous):EtOAc mixture was added. The suspension was allowed to stir for 5 days. A small sample of the suspension was pulled from the mixture after 22 hr, 46 hr and 118 hr. The samples were filtered, and dried in an oven at room temperature for 2-3 hr and characterized by XRPD.
A 20 mL vial was charged with 0.2 g of Form V and 0.2 g of Form I with 4 mL of a 1:2 EtOH (anhydrous):EtOAc mixture. The resulting suspension was stirred vigorously for 3 days. The suspension was filtered, and the solid was dried under reduced pressure at RT for 3 hr.
A 15 mL round bottom flask was equipped with a stir bar, thermometer and N2 inlet, and was charged with 0.25 g Form I and 0.25 g Form V. To the flask was added 6 mL of a 1:2 EtOH (anhydrous):EtOAc mixture was added to the flask resulting in a white suspension. The suspension was heated to 35° C. and stirred vigorously for 2 days. The suspension was filtered, and the resulting solid dried under reduced pressure at RT for 3 hr.
A 20 mL vial was charged with 0.2 g Form I and 0.2 g Form II. […]

[3] = Competitive slurry conversion testing of Forms I, II and V in EtOH/EtOAc at 20° C.
Protocol: The relative form stability between Forms I, II and V was investigated by aging mixtures of the mixed forms in EtOH, EtOAc, and mixtures thereof. The Form V starting material contained some Form II as determined by its XRPD pattern.
In two 4 mL vials, enough Form I and Form V (containing some Form II) were mixed with 1 mL of the appropriate solvent to generate a slurry in each vial. The two slurries were combined and shaken at 600 rpm at 20° C. The solids from the slurries were isolated for XRPD characterization at time 0, 1 day and 2 days (FIG. 12A-D).

[4] = Equilibrium solubility of Forms I, II and V in EtOH/Heptane; settings: EtOH/HPT, all solvent ratios, 20 and 35° C.
Protocol: Equilibrium solubilities of Forms I, II and V were measured in EtOH/Heptane (HPT) solutions of different ratios at 20 and 35° C.
In 4 mL test vial, the appropriate solids (Form I or Form II containing Form V) were mixed with ˜1 mL of each solvent to generate slurry. The resulting slurry was shaken at 600 rpm at 20 and 35° C. overnight. After overnight aging, supernatant from each vial was sampled for HPLC for equilibrium solubility, solids were isolated to check by XRPD.

[5] = Dynamic vapor sorption (DVS); settings: for Form of post-DVS sample by XRPD: after DVS at 25° C.
Protocol: Approximately 10 mg of sample was placed into a mesh vapor sorption balance pan and loaded into a DVS-1, DVS Intrinsic or DVS Advantage dynamic vapor sorption balance by Surface Measurement Systems. The sample was subjected to a ramping profile from 40-90% relative humidity (RH) at 10% increments, maintaining the sample at each step until a stable weight had been achieved (dm/dt 0.004%, minimum step length 30 min, maximum step length 500 min) at 25° C. After completion of the sorption cycle, the sample was dried using the same procedure to 0% RH and then a second sorption cycle back to 90% RH. Two cycles were performed. The weight change during the sorption/desorption cycles were plotted, allowing for the hygroscopic nature of the sample to be determined. XRPD analysis was then carried out on any solid retained.
Form I and II were analyzed by dynamic vapor sorption (DVS) at 25° C. (FIG. 16 and FIG. 17).

[6] = Form V / Form II interconversion on storage, drying and reslurry
Protocol: Increasing the temperature to 40° C. and drying Form V under vacuum increased the conversion rate to Form II (full conversion observed after 48 hr).

[7] = 100 V % EtOH in EtOH/EtOAc, 20° C.
[8] = ≤20 v % EtOH system, aging for two days

Solubility (wt %) ([1]; 0 V % EtOH in EtOH/EtOAc, 20° C.): 0.0% wt % | End Form by XRPD ([1]; 0 V % EtOH in EtOH/EtOAc): Form I | Solubility (wt %) ([1]; 20 V % EtOH in EtOH/EtOAc, 20° C.): 0.1% wt % | End Form by XRPD ([1]; 20 V % EtOH in EtOH/EtOAc): Form I | Solubility (wt %) ([1]; 33 V % EtOH in EtOH/EtOAc, 20° C.): 1.0% wt % | End Form by XRPD ([1]; 33 V % EtOH in EtOH/EtOAc): Form I | Solubility (wt %) ([1]; 50 V % EtOH in EtOH/EtOAc, 20° C.): 1.7% wt % | End Form by XRPD ([1]; 50 V % EtOH in EtOH/EtOAc): Form I | Solubility (wt %) ([1]; 67 V % EtOH in EtOH/EtOAc, 20° C.): 3.0% wt % | End Form by XRPD ([1]; 67 V % EtOH in EtOH/EtOAc): Form I | Solubility (wt %) ([1]; 80 V % EtOH in EtOH/EtOAc, 20° C.): 4.2% wt % | End Form by XRPD ([1]; 80 V % EtOH in EtOH/EtOAc): Form I | Solubility (wt %) [1, 7]: 6.4% wt % | solubility [1, 7]: 46.54 mg/mL | End Form by XRPD ([1]; 100 V % EtOH in EtOH/EtOAc): Form I | Relative form stability ([1]; EtOAc rich solvent system except for too high EtOAc (with too low solubility)): more stable than Forms II and V | solubility ([1]; EtOH/EtOAc solvent mixture, 20 °C, organic solvent or mixture, thermodynamic from solid, 20 V % EtOH in EtOH/EtOAc, 20° C., read-out: Solubility): 1.01 mg/mL | solubility ([1]; EtOH/EtOAc solvent mixture, 20 °C, organic solvent or mixture, thermodynamic from solid, 33 V % EtOH in EtOH/EtOAc, 20° C., read-out: Solubility): 8.93 mg/mL | solubility ([1]; EtOH/EtOAc solvent mixture, 20 °C, organic solvent or mixture, thermodynamic from solid, 50 V % EtOH in EtOH/EtOAc, 20° C., read-out: Solubility): 13.7 mg/mL | solubility ([1]; EtOH/EtOAc solvent mixture, 20 °C, organic solvent or mixture, thermodynamic from solid, 67 V % EtOH in EtOH/EtOAc, 20° C., read-out: Solubility): 23.7 mg/mL | solubility ([1]; EtOH/EtOAc solvent mixture, 20 °C, organic solvent or mixture, thermodynamic from solid, 80 V % EtOH in EtOH/EtOAc, 20° C., read-out: Solubility): 32.8 mg/mL | solubility ([1]; EtOH/EtOAc solvent mixture, 20 °C, organic solvent or mixture, thermodynamic from solid, 100 V % EtOH in EtOH/EtOAc, 20° C., read-out: Solubility): ~46 mg/mL | Crystal form change in solubility vials ([1]; EtOH/EtOAc, all ratios, 20° C.): No crystal form change | Form conversion in competitive slurry ([3]; solvents with ≥80 v % EtOH): converted to Form II | Form conversion in competitive slurry [3, 8]: remained | Form of post-DVS sample by XRPD [5]: conversion to Form VI
SMILES: C[C@H](Nc1cc(Cl)nc2c1cnn2[C@@H]1O[C@H](COP(=O)(O)CP(=O)(O)O)[C@@H](O)[C@H]1O)c1ccccc1F [Form I, (((((2R,3S,4R,5R)-5-(6-chloro-4-(((S)-1-(2-fluorophenyl)ethyl)amino)-1H-pyrazolo[3,4-b]pyridin-1-yl)-3,4-dihydroxytetrahydrofuran-2-yl)methoxy)(hydroxy)phosphoryl)methyl)phosphonic acid]
Relative form stability ([2]; 35° C., 2 days): more stable than Form V; also recorded: more stable than Form II | Relative form stability ([2]; RT): more stable than Form A; also recorded: more stable than Form V; also recorded: more stable than Form II | Solubility compared between forms [4]: higher than the solubility of Form II/V mixtures

Relative form stability ([1]; EtOH rich or EtOAc lean solvent systems): more stable than Forms I and V | Form of post-DVS sample by XRPD [5]: conversion to Form VI | Water uptake compared with Form I ([5]; from 40% to 70% relative humidity (RH), 25° C.): much less water uptake | Form recovered after resuspending ([6]; 1:1 EtOH:EtOAc mixture overnight with stirring): recovery of Form V
SMILES: C[C@H](Nc1cc(Cl)nc2c1cnn2[C@@H]1O[C@H](COP(=O)(O)CP(=O)(O)O)[C@@H](O)[C@H]1O)c1ccccc1F [Form II, (((((2R,3S,4R,5R)-5-(6-chloro-4-(((S)-1-(2-fluorophenyl)ethyl)amino)-1H-pyrazolo[3,4-b]pyridin-1-yl)-3,4-dihydroxytetrahydrofuran-2-yl)methoxy)(hydroxy)phosphoryl)methyl)phosphonic acid]

Form conversion in competitive slurry ([3]; 50~33 v % EtOH solvents): converted to Form I | Form conversion in competitive slurry ([3]; solvents with ≥80 v % EtOH): converted to Form II | Form conversion in competitive slurry [3, 8]: remained | Time for full conversion to Form II ([6]; 40° C., drying under vacuum): 48 h | Time for full conversion to Form II ([6]; stored at ambient temperature under an N2 blanket): > 48 h
SMILES: C[C@H](Nc1cc(Cl)nc2c1cnn2[C@@H]1O[C@H](COP(=O)(O)CP(=O)(O)O)[C@@H](O)[C@H]1O)c1ccccc1F [Form V, (((((2R,3S,4R,5R)-5-(6-chloro-4-(((S)-1-(2-fluorophenyl)ethyl)amino)-1H-pyrazolo[3,4-b]pyridin-1-yl)-3,4-dihydroxytetrahydrofuran-2-yl)methoxy)(hydroxy)phosphoryl)methyl)phosphonic acid]
